Laboratory results reported in the NIST ThermoML archive (doi:10.1016/j.jct.2011.04.008).

Assay: xn = mol fraction of the nth substance listed
Settings: 101 kPa, Liquid; for viscosity: Capillary tube (Ostwald / Ubbelohde) method; for speed of sound: Linear variable-path acoustic interferometer; for mass density: Pycnometric method

CC(=O)OC(C)(C)C [1,1-dimethylethyl ethanoate] + CCc1ccccc1
Settings | mass density, 298.15 K [kg/m3] | mass density, 308.15 K [kg/m3] | speed of sound, 298.15 K [m/s] | speed of sound, 308.15 K [m/s] | viscosity, 298.15 K [mPa·s] | viscosity, 308.15 K [mPa·s]
x1 = 0.0979 | 863.9 | 854.7 | 1287 | 1245 | 0.635 | 0.571
x1 = 0.1974 | 863.3 | 853.9 | 1254 | 1214 | 0.639 | 0.573
x1 = 0.2989 | 862.6 | 852.9 | 1224 | 1186 | 0.641 | 0.573
x1 = 0.3983 | 861.9 | 852 | 1198 | 1161 | 0.644 | 0.574
x1 = 0.4976 | 861.3 | 851.1 | 1176 | 1139 | 0.647 | 0.575
x1 = 0.5986 | 860.7 | 850.3 | 1155 | 1119 | 0.651 | 0.576
x1 = 0.6977 | 860.4 | 849.7 | 1137 | 1101 | 0.656 | 0.579
x1 = 0.7979 | – | 849.3 | 1121 | 1085 | 0.663 | 0.582
x1 = 0.8978 | 860.5 | 849.2 | 1106 | 1069 | 0.671 | 0.588
x1 = 1 | 861.1 | 849.4 | 1092 | 1055 | 0.683 | 0.596

CC(=O)OC(C)(C)C [1,1-dimethylethyl ethanoate] + Cc1ccccc1
Settings | mass density, 298.15 K [kg/m3] | mass density, 308.15 K [kg/m3] | speed of sound, 298.15 K [m/s] | speed of sound, 308.15 K [m/s] | viscosity, 298.15 K [mPa·s] | viscosity, 308.15 K [mPa·s]
x1 = 0.0976 | 861.9 | 851.9 | 1275 | 1232 | 0.567 | 0.502
x1 = 0.1986 | 861.6 | 851.2 | 1242 | 1197 | 0.577 | 0.509
x1 = 0.2993 | 861.2 | 850.5 | 1213 | 1168 | 0.588 | 0.516
x1 = 0.3975 | 860.8 | 849.9 | 1187 | 1143 | 0.599 | 0.524
x1 = 0.4983 | 860.5 | 849.4 | 1165 | 1120 | 0.611 | 0.533
x1 = 0.5978 | 860.3 | 848.9 | 1145 | 1101 | 0.623 | 0.542
x1 = 0.6975 | 860.2 | 848.7 | 1128 | 1085 | 0.636 | 0.553
x1 = 0.7972 | 860.3 | 848.7 | 1113 | 1072 | 0.65 | 0.565
x1 = 0.8987 | 860.6 | 848.9 | 1101 | 1062 | 0.666 | 0.58
x1 = 1 | 861.1 | 849.4 | 1092 | 1055 | 0.683 | 0.596

CC(=O)OC(C)(C)C [1,1-dimethylethyl ethanoate] + c1ccccc1
Settings | mass density, 298.15 K [kg/m3] | mass density, 308.15 K [kg/m3] | speed of sound, 298.15 K [m/s] | speed of sound, 308.15 K [m/s] | viscosity, 298.15 K [mPa·s] | viscosity, 308.15 K [mPa·s]
x1 = 0.0987 | 870.6 | 859.3 | 1254 | 1215 | 0.613 | 0.54
x1 = 0.1999 | 868.5 | 856.8 | 1220 | 1179 | 0.618 | 0.542
x1 = 0.299 | 866.7 | 854.9 | 1192 | 1150 | 0.623 | 0.544
x1 = 0.3982 | 865.3 | 853.2 | 1169 | 1127 | 0.629 | 0.548
x1 = 0.498 | 864.1 | 851.9 | 1149 | 1107 | 0.636 | 0.552
x1 = 0.5995 | 863 | 850.8 | 1133 | 1091 | 0.643 | 0.558
x1 = 0.6996 | 862.3 | 850 | 1120 | 1079 | 0.651 | 0.565
x1 = 0.7999 | 861.7 | 849.5 | 1109 | 1068 | 0.661 | 0.574
x1 = 0.8993 | 861.3 | 849.4 | 1099 | 1060 | 0.671 | 0.584
x1 = 1 | 861.1 | 849.4 | 1092 | 1055 | 0.683 | 0.596

c1ccccc1 [benzene] + CC(=O)OC(C)(C)C
x2 = 0
Settings | mass density [kg/m3] | speed of sound [m/s] | viscosity [mPa·s]
298.15 K | 873 | 1296 | 0.609
308.15 K | 862 | 1260 | 0.539

CCc1ccccc1 [ethylbenzene] + CC(=O)OC(C)(C)C
x2 = 0
Settings | mass density [kg/m3] | speed of sound [m/s] | viscosity [mPa·s]
298.15 K | 864.4 | 1325 | 0.631
308.15 K | 855.4 | 1280 | 0.569

Cc1ccccc1 [toluene] + CC(=O)OC(C)(C)C
x2 = 0
Settings | mass density [kg/m3] | speed of sound [m/s] | viscosity [mPa·s]
298.15 K | 862.2 | 1312 | 0.556
308.15 K | 852.5 | 1270 | 0.494
